Consider one compound from US10526337B2, “Heteroaryl derivative or pharmaceutically acceptable salt thereof, preparation method therefor, and pharmaceutical composition for preventing or treating diseases associated with PI3 kinases, containing same as active ingredient” (KOREA RESEARCH INSTITUTE OF CHEMICAL TECHNOLOGY, priority 2015, dated 2020).

Holding throughout (conditions): ATP=10 uM, sample concentration=100 nM
Experiment [1] deals with T1, PI3 Kinase (p110α/p85α) (h) (Homo sapiens, UniProt P42336).
T1 construct: endogenous in cells; host or cells: MDA-MB-453
The experiment in a line: Inhibition of phosphatidylinositol 3-kinase alpha (PI3K α), pAkt Western blotting in EGF-stimulated MDA-MB-453 cells. It counts as cell-based.

The target of experiment [2] is T2, PI3 Kinase (p120γ) (h) (Homo sapiens, UniProt P48736).
T2 construct: endogenous in cells; host or cells: RAW264.7
The experiment in a line: Inhibition of phosphatidylinositol 3-kinase gamma (PI3K γ), pAkt Western blotting in C5a-stimulated RAW264.7 macrophages. Type of experiment: cell-based, mouse. The method in brief: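 Enzyme: PI3Kγ activity measured at ATP=10 uM with compound at 100 nM. Cellular: RAW264.7 macrophages treated with compound 1.5 h, then stimulated with 10 ng/mL C5a for 5 min; lysates (10 μg protein) probed by Western blot for pAkt (Ser473 or Thr308), ECL detection.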
For orientation: In western blotting, separated proteins are transferred to a membrane and probed.

Experiment [3] concerns the target T3, PI3 Kinase (p110β/p86α) (h) (Homo sapiens, UniProt P42338).
T3 construct: endogenous in cells; host or cells: PC3
Description: Inhibition of phosphatidylinositol 3-kinase beta (PI3K β), pAkt Western blotting in LPA-stimulated PC3 cells. It counts as cell-based.

For experiment [4], the target named is T4, PI3 Kinase (p110δ/p85α) (h) (Homo sapiens, UniProt O00329).
T4 construct: endogenous in cells; host or cells: Raji
Description: Inhibition of phosphatidylinositol 3-kinase delta (PI3K δ), pAkt Western blotting in IgM-stimulated Raji cells. Type of experiment: cell-based. Put shortly: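 Raji cells were treated with compound for 1.5 h, then stimulated with 0.25 μg/mL IgM for 30 min to activate PI3Kδ. Lysates were Western blotted for pAkt (Ser473 or Thr308) with ECL detection. Conditions stated: ATP=10 uM, sample concentration=100 nM.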

As a reminder, the IC50 is the concentration that gives 50% inhibition. Read a high IC50 as a need for much substance.

T3 sequence (P42338 whole entry): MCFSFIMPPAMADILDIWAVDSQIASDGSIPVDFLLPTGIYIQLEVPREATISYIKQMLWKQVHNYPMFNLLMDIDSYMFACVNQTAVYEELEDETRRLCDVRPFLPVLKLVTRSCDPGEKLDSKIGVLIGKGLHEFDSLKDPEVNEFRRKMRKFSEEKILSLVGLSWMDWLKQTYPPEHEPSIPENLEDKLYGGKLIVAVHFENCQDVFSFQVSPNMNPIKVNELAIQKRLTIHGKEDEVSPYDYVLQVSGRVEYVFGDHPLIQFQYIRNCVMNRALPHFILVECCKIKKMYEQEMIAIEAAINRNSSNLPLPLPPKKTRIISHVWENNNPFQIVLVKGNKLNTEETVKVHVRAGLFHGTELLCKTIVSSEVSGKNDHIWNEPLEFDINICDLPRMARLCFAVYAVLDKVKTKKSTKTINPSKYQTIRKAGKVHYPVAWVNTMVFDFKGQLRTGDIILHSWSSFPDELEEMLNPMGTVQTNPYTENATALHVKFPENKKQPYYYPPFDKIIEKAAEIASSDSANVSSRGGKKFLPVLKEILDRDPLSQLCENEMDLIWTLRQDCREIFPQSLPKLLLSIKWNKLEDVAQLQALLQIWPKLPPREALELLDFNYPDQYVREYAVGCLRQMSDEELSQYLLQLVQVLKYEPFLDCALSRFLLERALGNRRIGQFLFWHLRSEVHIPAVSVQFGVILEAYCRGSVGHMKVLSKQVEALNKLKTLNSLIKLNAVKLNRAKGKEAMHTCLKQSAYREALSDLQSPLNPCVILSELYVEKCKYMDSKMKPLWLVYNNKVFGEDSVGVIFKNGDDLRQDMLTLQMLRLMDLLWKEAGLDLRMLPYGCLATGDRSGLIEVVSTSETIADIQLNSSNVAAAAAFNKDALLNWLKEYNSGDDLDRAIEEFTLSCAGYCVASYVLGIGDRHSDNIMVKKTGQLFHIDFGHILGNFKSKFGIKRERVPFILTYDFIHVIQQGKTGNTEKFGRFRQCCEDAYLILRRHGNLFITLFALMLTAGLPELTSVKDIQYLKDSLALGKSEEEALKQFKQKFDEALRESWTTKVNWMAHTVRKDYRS
T3 sequence (P27986 whole entry partner): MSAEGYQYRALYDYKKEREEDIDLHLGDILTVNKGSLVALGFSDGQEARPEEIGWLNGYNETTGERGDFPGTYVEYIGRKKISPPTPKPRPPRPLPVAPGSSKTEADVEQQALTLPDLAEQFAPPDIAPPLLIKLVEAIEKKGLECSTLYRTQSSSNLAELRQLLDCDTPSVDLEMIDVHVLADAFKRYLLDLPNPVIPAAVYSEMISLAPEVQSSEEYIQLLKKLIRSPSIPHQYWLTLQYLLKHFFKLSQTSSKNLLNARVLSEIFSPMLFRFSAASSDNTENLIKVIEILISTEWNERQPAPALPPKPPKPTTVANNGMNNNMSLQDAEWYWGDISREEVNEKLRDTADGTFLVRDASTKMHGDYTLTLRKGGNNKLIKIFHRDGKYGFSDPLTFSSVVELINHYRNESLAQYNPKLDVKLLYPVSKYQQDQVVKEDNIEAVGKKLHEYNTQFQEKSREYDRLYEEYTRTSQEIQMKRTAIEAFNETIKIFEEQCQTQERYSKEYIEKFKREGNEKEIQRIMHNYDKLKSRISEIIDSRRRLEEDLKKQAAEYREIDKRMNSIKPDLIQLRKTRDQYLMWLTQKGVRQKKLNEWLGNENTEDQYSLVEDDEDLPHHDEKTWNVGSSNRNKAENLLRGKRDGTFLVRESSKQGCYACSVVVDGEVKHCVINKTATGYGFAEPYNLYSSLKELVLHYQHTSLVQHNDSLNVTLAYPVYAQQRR
T2 sequence (P48736 whole entry): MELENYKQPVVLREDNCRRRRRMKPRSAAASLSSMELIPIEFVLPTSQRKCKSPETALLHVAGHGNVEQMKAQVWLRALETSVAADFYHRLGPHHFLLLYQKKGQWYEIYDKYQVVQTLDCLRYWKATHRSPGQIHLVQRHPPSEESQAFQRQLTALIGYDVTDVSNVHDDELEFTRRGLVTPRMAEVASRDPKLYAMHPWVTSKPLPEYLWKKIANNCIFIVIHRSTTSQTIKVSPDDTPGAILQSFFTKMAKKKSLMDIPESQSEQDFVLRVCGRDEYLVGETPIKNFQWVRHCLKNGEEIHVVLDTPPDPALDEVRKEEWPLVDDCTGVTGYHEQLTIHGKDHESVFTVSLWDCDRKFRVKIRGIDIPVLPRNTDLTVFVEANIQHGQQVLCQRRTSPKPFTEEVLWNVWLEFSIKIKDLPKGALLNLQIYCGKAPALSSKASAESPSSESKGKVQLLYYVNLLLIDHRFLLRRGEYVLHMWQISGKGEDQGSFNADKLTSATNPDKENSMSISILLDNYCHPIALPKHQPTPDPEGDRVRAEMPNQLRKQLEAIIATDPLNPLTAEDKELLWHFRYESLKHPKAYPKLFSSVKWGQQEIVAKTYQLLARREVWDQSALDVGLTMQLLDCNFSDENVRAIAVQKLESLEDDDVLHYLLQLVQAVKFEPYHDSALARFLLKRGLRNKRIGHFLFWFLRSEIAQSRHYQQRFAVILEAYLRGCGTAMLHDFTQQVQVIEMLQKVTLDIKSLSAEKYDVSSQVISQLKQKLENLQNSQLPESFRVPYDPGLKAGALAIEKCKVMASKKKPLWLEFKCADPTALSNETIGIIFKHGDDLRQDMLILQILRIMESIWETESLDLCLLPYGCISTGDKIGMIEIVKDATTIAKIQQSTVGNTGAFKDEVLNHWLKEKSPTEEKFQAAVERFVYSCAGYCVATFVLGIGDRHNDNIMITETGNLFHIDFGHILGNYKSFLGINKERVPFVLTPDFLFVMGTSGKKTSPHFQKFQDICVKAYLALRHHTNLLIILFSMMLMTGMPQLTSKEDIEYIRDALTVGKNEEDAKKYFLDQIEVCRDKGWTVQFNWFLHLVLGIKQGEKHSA
T4 sequence (O00329 whole entry): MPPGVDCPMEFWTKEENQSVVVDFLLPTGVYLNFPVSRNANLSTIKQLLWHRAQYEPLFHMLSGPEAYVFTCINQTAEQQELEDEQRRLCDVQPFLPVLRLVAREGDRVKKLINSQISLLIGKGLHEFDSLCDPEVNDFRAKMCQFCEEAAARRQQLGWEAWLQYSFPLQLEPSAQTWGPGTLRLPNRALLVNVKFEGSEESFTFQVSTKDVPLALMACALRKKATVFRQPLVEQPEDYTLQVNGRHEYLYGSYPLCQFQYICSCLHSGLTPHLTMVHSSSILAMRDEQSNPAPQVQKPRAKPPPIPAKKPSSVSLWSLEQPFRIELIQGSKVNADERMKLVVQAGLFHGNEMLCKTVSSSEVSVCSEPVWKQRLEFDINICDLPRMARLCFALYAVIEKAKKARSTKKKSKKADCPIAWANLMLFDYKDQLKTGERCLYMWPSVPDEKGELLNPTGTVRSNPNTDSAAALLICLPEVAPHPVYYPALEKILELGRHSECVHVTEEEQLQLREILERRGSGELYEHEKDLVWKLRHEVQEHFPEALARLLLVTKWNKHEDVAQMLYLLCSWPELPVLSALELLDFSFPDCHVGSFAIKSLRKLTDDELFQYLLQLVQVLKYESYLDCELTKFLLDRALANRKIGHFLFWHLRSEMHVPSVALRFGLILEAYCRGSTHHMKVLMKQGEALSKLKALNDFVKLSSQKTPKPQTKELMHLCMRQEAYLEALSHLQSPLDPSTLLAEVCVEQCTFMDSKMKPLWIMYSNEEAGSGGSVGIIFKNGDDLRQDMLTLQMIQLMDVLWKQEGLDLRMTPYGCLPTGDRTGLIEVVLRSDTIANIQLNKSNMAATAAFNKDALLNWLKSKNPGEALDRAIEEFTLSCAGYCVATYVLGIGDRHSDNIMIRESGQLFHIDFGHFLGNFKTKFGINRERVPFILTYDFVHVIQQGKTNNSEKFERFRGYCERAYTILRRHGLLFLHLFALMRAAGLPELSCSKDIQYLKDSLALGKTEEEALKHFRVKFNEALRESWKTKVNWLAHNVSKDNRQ
T4 sequence (P27986 whole entry partner): as the sequence (P27986 whole entry partner) above

With `C[C@H](Nc1ncnc2c1C(=O)CCN2)c1c(Cl)c2cccc(Cl)c2c(=O)n1-c1ccccc1` [Example 98, (S)-4-((1-(4,8-dichloro-1-oxo-2-phenyl-1,2-dihydroisoquinoline-3-yl)ethyl)amino)-7,8-dihydropyrido[2,3-d]pyrimidine-5(6H)-one], the IC50 in experiment [1] is greater than 500 nM; in experiment [2], 10 to 500 nM; in experiment [3], 10 to 500 nM; in experiment [4], less than 10 nM.
